The values that follow come from the OPERA property sets (Mansouri et al. 2018).

SMILES strings stand for the structures.

What is called boiling point is the temperature of boiling at a given pressure. In turn, `CCC[Si](Cl)(Cl)Cl` gave a boiling point of 124 °C and a log10 vapour pressure (mmHg) of 1.46.

One may read the melting point as the temperature of the solid-liquid transition. The compound `FC(Cl)(Cl)c1ccccc1` had a boiling point of 179 °C and a melting point of -26.8 °C.

With `Oc1cccc(F)c1`, the boiling point was found to be 178 °C and the melting point is 13.7 °C.

`C/C=C/c1cc2c(c(=O)o1)C(=O)[C@@H](O)[C@H](C)O2` displayed a melting point of 222 °C.

`CCC=CC(C)(C)C`: the boiling point is 103 °C.

In the case of `CC(C)NCCCC1(C(N)=O)c2ccccc2-c2ccccc21`, the melting point is 94.5 °C.

Regarding `CCC(C)COC` (centres undefined), the boiling point was determined as 90 °C.

Consider `COc1ccc2c(c1)C(=O)N(CCc1ccc(S(=O)(=O)NC(=O)NC3CCCCC3)cc1)C(=O)C2(C)C`, for which the melting point was found to be 181 °C.

With `CCC(CC)=NO`, the boiling point came out at 168 °C.

`CCCCC(CC)CN` (centres undefined) came in with a boiling point of 169 °C, a log10 vapour pressure (mmHg) of 0.146 and a melting point of -76 °C.

`Cc1cccc(C(=O)O)c1S(=O)(=O)NC(=O)Nc1nc(OCC(F)(F)F)nc(N(C)C)n1` came in with a melting point of 162 °C.

Compound `CC(C)C(C)(C)C(C)C` showed a boiling point of 142 °C, a log10 vapour pressure (mmHg) of 0.946 and a melting point of -102 °C.

For `CN(C)c1ccc2cc3ccc(N(C)C)cc3nc2c1`, the melting point was found to be 165 °C.

Compound `CC1=CCC(=O)O1` registered a melting point of 18 °C.

`OC[C@H]1O[C@@H](n2cnc3cncnc32)[C@H](O)[C@@H]1O`: the melting point stood at 181 °C.

In turn, `CC(C)CCNCCC(C)C` showed a boiling point of 188 °C and a melting point of -44 °C.

Compound `C[Si](C)(C)C` registered a boiling point of 26.6 °C, a log10 vapour pressure (mmHg) of 2.86 and a melting point of -99 °C.

With `CC(CC(C)(C)C)CC(C)(C)C`, the boiling point is 178 °C and the melting point was -67 °C.

In the case of `O=C(CC(=O)c1ccccc1)c1ccccc1`, the melting point worked out at 70.5 °C and the ready biodegradability result is given as “readily biodegradable”.

For the compound `Nc1ncc2ncn(COCCO)c2n1`, the melting point was determined as 189 °C.

With `CCCSP(=S)(OCC)Oc1ccc(SC)cc1` (centres undefined), the log10 Koc (L/kg) was 4.08, the log10 vapour pressure (mmHg) is -5.92 and the melting point was -15 °C.

In turn, `CCOC(=O)CN(C(=O)CCl)c1c(CC)cccc1CC` yielded a log10 Koc (L/kg) of 2 and a melting point of 49.5 °C.

For `CCCCCCCCCC`, the boiling point was 174 °C, the log10 biodegradation half-life (days) was 0.954, the log10 vapour pressure (mmHg) was determined as 0.155 and the melting point is -29.7 °C. The ready biodegradability result is recorded as “readily biodegradable”.

`CC=C1CCCC1`: the boiling point was 115 °C and the melting point was -130 °C.

The compound `NS(=O)(=O)c1cc2c(cc1Cl)N=C(CSCc1ccccc1)NS2(=O)=O` yielded a melting point of 232 °C.

For `CCNC(=O)/C=C(C)/C=C/C=C(C)/C=C/c1c(C)cc(OC)c(C)c1C`, the melting point was found to be 180 °C.

Turning to `Cc1ccccc1Br`, the boiling point worked out at 182 °C, the log10 vapour pressure (mmHg) was determined as 0.0186 and the melting point was -27.8 °C.

Regarding `CC(C)CNCC(C)C`, the boiling point turned out to be 140 °C, the log10 vapour pressure (mmHg) was 0.862, the melting point is -73.5 °C and the ready biodegradability result is given as “readily biodegradable”.

As for `CC(=O)c1ccc(Br)cc1`, the boiling point is 257 °C and the melting point was 50.5 °C.

Turning to `Cc1cc(C)c([N+](=O)[O-])c(C)c1[N+](=O)[O-]`, the boiling point worked out at 418 °C and the melting point turned out to be 85.3 °C.

The compound `COC(=O)c1ccc(Cl)c([N+](=O)[O-])c1` displayed a melting point of 83 °C.

Compound `CN(N=O)c1ccccc1` yielded a melting point of 14.7 °C.

Take `O=C(CC(=O)C(F)(F)F)c1cccs1`: the melting point came to 42 °C.

`Oc1cccc(S)c1` yielded a melting point of 16.5 °C.

In turn, `CCCCc1ccccc1O` came in with a boiling point of 235 °C, a log10 vapour pressure (mmHg) of -1.99 and a melting point of -20 °C.

Compound `COc1ccc(CC#N)cc1` came in with a boiling point of 286 °C.

For the compound `CN(C)[C@@H]1C(O)=C(C(N)=O)C(=O)[C@@]2(O)C(O)=C3C(=O)c4c(O)ccc(Cl)c4[C@@](C)(O)[C@H]3C[C@@H]12`, the melting point was found to be 168 °C.

Take `CCCC(O)C(=O)O` (centres undefined): the melting point was found to be 34 °C.

Take `CC=NNc1ccc([N+](=O)[O-])cc1[N+](=O)[O-]`: the melting point amounted to 166 °C.

`[O-][n+]1cccc(O)c1` returned a melting point of 191 °C.

`Clc1ccc(CSc2ccc(Cl)cc2)cc1`: the melting point stood at 75 °C.

As to `CCCCCCCCCCCCCCCCCl`, the boiling point is 322 °C, the log10 vapour pressure (mmHg) is -4.21 and the melting point came out at 17.9 °C.

Compound `CCCCCCCCCCCCCCCCCCN` yielded a boiling point of 347 °C and a melting point of 52.9 °C.

The compound `CC[C@H]1CN2CC[C@]3(C(=O)Nc4ccccc43)[C@@H]2C[C@@H]1/C(=C\OC)C(=O)OC` registered a melting point of 216 °C.

Compound `Clc1ccc(Cc2ccc(Cl)cc2)cc1` showed a melting point of 55.5 °C.

In turn, `CC(=O)c1cnccn1` came in with a melting point of 77 °C.

With `O=S(=O)(Oc1ccc(Cl)cc1)c1ccc(Cl)cc1`, the melting point turned out to be 86.5 °C and the ready biodegradability entry was “not readily biodegradable”.

In turn, `CCCCCCCCCOCCCCCCCCC` gave a log10 vapour pressure (mmHg) of -4.28.

For `CC(C)COC(=O)c1ccc(C(=O)OCC(C)C)cc1`, the melting point turned out to be 55 °C.

With `O=C(c1ccccc1)c1ccc(Cl)cc1`, the boiling point is 332 °C and the melting point came out at 77.5 °C.

`c1ccc2c(c1)nnc1ccccc12` yielded a melting point of 158 °C.

`O=Cc1cc(O)ccc1[N+](=O)[O-]` displayed a melting point of 167 °C.

`CCOP(=S)(OCC)SCSP(=S)(OCC)OCC` returned a log10 Koc (L/kg) of 4.06, a log10 vapour pressure (mmHg) of -5.82 and a melting point of -13 °C.
